Assay results taken from publication PMC5329011 (Frontiers in Neuroscience, 2017).
Where two headings read alike, the source gives them in different places. One block for each compound: values may come before it. Ends that are not written are not given here.

What was measured:
[1] = molecular target: T1, apelin receptor (Homo sapiens, UniProt P35414); test: Inhibition of forskolin-stimulated cAMP accumulation (DiscoverX); assay type: cell-based; details: 15 μmol/L forskolin, cells expressing human apelin receptor, mean ± SEM, n = replicates/experiments, read-out: pD2, inhibition of forskolin-stimulated cAMP (converted)
T1 sequence (P35414 1-380): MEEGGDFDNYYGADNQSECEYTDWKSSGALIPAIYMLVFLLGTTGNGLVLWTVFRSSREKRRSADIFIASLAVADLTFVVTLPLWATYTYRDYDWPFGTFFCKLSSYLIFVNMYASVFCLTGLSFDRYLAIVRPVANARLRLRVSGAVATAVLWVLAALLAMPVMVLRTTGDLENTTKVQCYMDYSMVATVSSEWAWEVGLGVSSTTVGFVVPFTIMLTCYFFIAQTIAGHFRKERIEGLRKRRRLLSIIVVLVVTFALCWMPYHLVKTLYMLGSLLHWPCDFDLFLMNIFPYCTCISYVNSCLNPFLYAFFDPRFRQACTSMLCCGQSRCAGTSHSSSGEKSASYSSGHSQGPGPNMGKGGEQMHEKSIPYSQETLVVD
Procedure: (§1) Inhibition of cAMP accumulation, β-arrestin recruitment and receptor internalization by apelin isoforms, modified and truncated apelin peptides were studied using cells expressing the human apelin receptor (DiscoverX, CA, USA) as per the manufacturer's instructions. In all assays the resulting chemiluminescent signal was measured as relative light units (RLU) using a LumiLITE™ Microplate Reader (DiscoveRx, Fremont, CA). […] Agonist responses were expressed as a % of the forskolin response. […] Data were analyzed using a 4-parameter logistic equation using GraphPad Prism 6 to determine values of potency, pD2 (−log10 EC50, where EC50 is the concentration producing half maximal response) and maximum response (EMAX). n-Values are given as number of replicates/number of experiments.

[2] = molecular target: T1, apelin receptor; test: β-arrestin recruitment assay (DiscoverX); assay type: cell-based; details: cells expressing human apelin receptor, mean ± SEM, n = replicates/experiments, read-out: pD2, β-arrestin recruitment (converted)
Procedure: as §1

[3] = molecular target: T1, apelin receptor; test: Competition binding with [Glp65,Nle75,Tyr77][125I]apelin-13 in human left ventricle homogenate; set-up: from tissue; host or cells: human left ventricle homogenate
Procedure: Assays were performed in human heart as previously described (Brame et al., [2015]). […] Equilibrium was broken by centrifugation (20,000 g for 10 min, 4°C) and pellets washed with Tris-HCl buffer (50 mmol/L, pH 7.4, 4°C), re-centrifuged and pellets counted for detection of bound radioactivity. Competition binding data were analyzed using GraphPad Prism 6 (GraphPad Software, Inc. La Jolla, CA, USA) to obtain values of pKi (the negative log10 of the dissociation constant derived from the IC50 for the competing ligands, the radioligand concentration and radioligand affinity by the Cheng and Prusoff equation). Experiments were performed in triplicate.
Measurements are mean ± standard error of the mean (SEM). […] Cell assay pD2 values were compared by one-way ANOVA followed by Tukey's multiple comparison test.

[4] = tested on: rhACE2; test: rhACE2 enzyme (5 pmol, GSK) in buffer (pH 6.5) containing MES (500 mmol/L), NaCl (300 mmol/L) and ZnCl2 (10 μmol/L); details: human, 37°C, up to 2 h
[5] = rat in vivo; details: cited from earlier work
[6] = molecular target: T2, vascular smooth muscle apelin receptor (Homo sapiens, UniProt P35414); test: Contraction of endothelium-denuded human saphenous vein; details: n = 9; for Emax: % of terminal response to KCl (100 mmol/L)
T2 construct: from tissue; host or cells: endothelium-denuded human saphenous vein
T2 sequence (P35414 1-380): T1 sequence (P35414 1-380)
Procedure: (§2) Vascular smooth muscle apelin receptor-mediated contraction was exploited in a bioassay to compare the in vitro potency of apelin peptides. […] Agonist responses were expressed as a % of a terminal response to KCl (100 mmol/L). […] Data were expressed as % of the terminal response to CaCl2. Data from vascular and cardiac experiments were analyzed using a 4-prameter logistic curve (GraphPad Prism 6) to determine values of pD2 and EMAX.

[7] = molecular target: T1, apelin receptor; test: Receptor internalization assay (DiscoverX); assay type: cell-based
Procedure: as §1

[8] = molecular target: T1, apelin receptor; test: β-arrestin assay without and with pre-incubation with rhACE2; assay type: cell-based
Procedure: as §1

[9] = human, in vivo
Procedure: Studies were performed in healthy volunteers (n = 12) in the University of Cambridge Vascular Research Unit, Addenbrooke's Hospital, Cambridge, UK. This study was carried out in accordance with the recommendations of the National Research Ethics Service Committee East of England-Cambridge Central with written informed consent from all subjects. All subjects gave written informed consent in accordance with the Declaration of Helsinki. The protocol was approved by the National Research Ethics Service Committee East of England-Cambridge Central (REC 11/EE/0305).
Exclusion criteria were ischemic heart disease, respiratory, renal or neurological disease, diabetes mellitus, hypertension, BMI > 30, BMI <18; smoker; pregnant; use of vasoactive medication or NSAIDS/aspirin within 48 h of study; current involvement in other research studies. An Omron HEM705CP oscillimetric sphygmomanometer was used to measure blood pressure and heart rate at baseline and then every 6 min in the contralateral arm. Periodically, a cuff around the upper arm was inflated for ~8 s to 40 mmHg then deflated for 4 s to interrupt venous return and during a 3 min measurement hand circulation was excluded by inflation of wrist cuffs to 200 mmHg. Changes in forearm volume were measured by mercury-in-silastic strain gauge with FBF subsequently expressed as ml/100 ml forearm volume per min. […]

[10] = tested on: mouse paced right ventricle; test: Inotropic action in mouse paced right ventricle; details: mouse paced RV, n = 6 (isoprenaline n = 4)
Procedure: as §2

[11] = molecular target: T3, recombinant human ACE2 (Homo sapiens, UniProt Q9BYF1); test: Incubation with rhACE2, Maldi-TOF mass spectrometry; assay type: in vitro ADME; details: 5 nmol peptide, 5 pmol rhACE2, MES buffer pH 6.5, 2 h, 37°C, Maldi-TOF read-out
T3 construct: purchased GSK, Ware, UK
Procedure: The reaction mixture was analyzed by Maldi-TOF mass spectrometry after samples were desalted using Millipore μC18ZipTip (MA, USA), washed with 5% acetic acid and eluted with CHCA matrix (in 50% aqueous acetonitrile containing 0.1% trifluoroacetic acid) to a stainless steel sample slide. Samples were air dried and analyzed using a Waters Maldi MicroMX time-of-flight mass spectrometer (MA, USA). Calibration was external using polyethylene glycol. The 10 Hz-laser power was just above threshold. The spectra were the sum of 1,000 shots collected from a spiral track of the sample area. Data were processed using Waters MassLynx software (MA, USA).

[12] = cited from earlier work
Text: Apelins are modulators of vascular tone and cardiac contractility in vitro and in vivo (Japp et al., [2008], [2010]; Maguire et al., [2009]; Barnes et al., [2013]; Brame et al., [2015]).

T3 sequence (Q9BYF1 18-740 limits assumed): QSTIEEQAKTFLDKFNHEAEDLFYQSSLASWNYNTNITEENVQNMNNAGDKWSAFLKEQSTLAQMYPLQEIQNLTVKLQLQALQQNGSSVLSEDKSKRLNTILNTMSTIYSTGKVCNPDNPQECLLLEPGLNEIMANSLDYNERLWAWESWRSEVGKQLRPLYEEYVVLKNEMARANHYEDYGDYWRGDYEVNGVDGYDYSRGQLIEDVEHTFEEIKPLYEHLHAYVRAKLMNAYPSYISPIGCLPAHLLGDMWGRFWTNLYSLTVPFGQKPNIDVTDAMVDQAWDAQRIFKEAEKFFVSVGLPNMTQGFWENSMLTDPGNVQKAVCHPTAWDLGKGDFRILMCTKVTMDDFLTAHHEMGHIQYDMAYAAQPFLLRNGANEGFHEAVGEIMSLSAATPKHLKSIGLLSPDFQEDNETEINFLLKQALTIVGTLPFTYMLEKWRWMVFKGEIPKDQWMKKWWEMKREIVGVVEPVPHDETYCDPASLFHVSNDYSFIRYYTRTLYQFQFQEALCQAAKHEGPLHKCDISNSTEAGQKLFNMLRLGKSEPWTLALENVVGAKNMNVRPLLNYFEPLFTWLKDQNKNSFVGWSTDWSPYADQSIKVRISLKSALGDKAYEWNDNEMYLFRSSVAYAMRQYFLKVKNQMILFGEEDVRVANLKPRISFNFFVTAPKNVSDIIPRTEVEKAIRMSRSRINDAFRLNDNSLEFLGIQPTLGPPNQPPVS

- EC50 [1]: 2 nM
- EC50 [2]: 5.5 nM
- % of specific binding competed for ([3]; single concentration 1 μM peptide): 100%
Compound: RPRLSHKGPM [apelin-13(R10M)]

- cleaved bond [4]: Pro12-Phe13, 2 h
Compound: pGlu-Arg-Pro-Arg-Leu-Ser-His-Lys-Gly-Pro-Met-Pro-Phe
- cleaved bond [5]: Pro12-Phe13, minor

- EC50 ([10]; mean ± SEM, SEM, read-out: pD2, increase in force of contraction (converted)): 13.2 nM
Compound: CC(C)NCC(O)c1ccc(O)c(O)c1 (stereo not shown) [isoprenaline]
- EMAX, increase in force of contraction [10]: 78 ± 17 % CaCl2

The next lines start with the compound.

Compound: pGlu-Arg-Pro-Arg-Leu-Ser-His-Lys-Gly-Pro-Met-Pro
- not cleaved [4]: did not produce shorter apelin fragments (2 h)

Compound: CSCC[C@H](NC(=O)[C@@H]1CCCN1C(=O)CNC(=O)[C@H](CCCCN)NC(=O)[C@H](Cc1c[nH]cn1)NC(=O)[C@H](CO)NC(=O)[C@H](CC(C)C)NC(=O)[C@H](CCCNC(=N)N)NC(=O)[C@@H]1CCCN1C(=O)[C@H](CCCNC(=N)N)NC(=O)[C@@H](N)CCC(N)=O)C(=O)N1CCC[C@H]1C(=O)N[C@@H](C)C(=O)O [apelin-13(F13A), reference compound]
- Emax [6]: 23 ± 4%

Compound: CSCC[C@H](NC(=O)[C@@H]1CCCN1C(=O)CNC(=O)[C@H](CCCCN)NC(=O)[C@H](Cc1c[nH]cn1)NC(=O)[C@H](CO)NC(=O)[C@H](CC(C)C)NC(=O)[C@H](CCCNC(=N)N)NC(=O)[C@@H]1CCCN1C(=O)[C@H](CCCNC(=N)N)NC(=O)[C@@H]1CCC(=O)N1)C(=O)N1CCC[C@H]1C(=O)O [[Pyr^1]apelin-13(1–12)]
- EC50 [1]: 0.501 nM
- EC50 [2]: 14.5 nM
- Emax [7]: 97 ± 2%
- EC50 ([7]; mean ± SEM, SEM, read-out: pD2, receptor internalization (converted)): 6.46 nM
- EMAX (% [Pyr^1]apelin-13) ([8]; without or with pre-incubation with rhACE2): 98 ± 5 % [Pyr^1]apelin-13
- EC50 ([8]; without or with pre-incubation with rhACE2 (2 h, 37°C), mean ± SEM, SEM, read-out: Potency (pD2) (converted)): 53.7 nM
- Emax [6]: 24 ± 6%
- EC50 ([6]; endothelium-denuded human saphenous vein, mean ± SEM, SEM, read-out: pD2, contraction of saphenous vein (converted)): 0.234 nM
- effect on heart rate or blood pressure [9]: No significant effects
- Ki ([3]; 0.1 nmol/L radioligand, 90 min, 22°C, pH 7.4, Cheng-Prusoff, mean ± SEM, n = 3, SEM): 9.12 nM

Compound: CSCC[C@H](NC(=O)[C@@H]1CCCN1C(=O)CNC(=O)[C@H](CCCCN)NC(=O)[C@H](Cc1cnc[nH]1)NC(=O)[C@H](CO)NC(=O)[C@H](CC(C)C)NC(=O)[C@H](CCCNC(=N)N)NC(=O)[C@@H]1CCCN1C(=O)[C@H](CCCNC(=N)N)NC(=O)[C@@H]1CCC(=O)N1)C(=O)N1CCC[C@H]1C(=O)N[C@@H](Cc1ccccc1)C(=O)O [[Pyr^1]apelin-13]
- result of incubation with rhACE2 [11]: de novo generation of [Pyr^1]apelin-13(1–12), with a weak signal representing the remaining parent peptide
- half-life ([12]; humans, ref Japp et al., 2008): less than 8 min
- half-life ([12]; rat, ref Brame et al., 2015): less than 3 min
